Data on 3 compounds can be found in PMC4193543 (ChemMedChem, 2012).

SMILES strings stand for the structures.

In the assay the target is BK β1 subunit (Rattus norvegicus, UniProt P97678). Description: inside-out patch clamp, single-channel NPo in excised oocyte patches. It counts as cell-based. Background: The patch-clamp technique gives a direct electrical read-out from membranes.
BK β1 subunit, sequence (P97678 whole entry): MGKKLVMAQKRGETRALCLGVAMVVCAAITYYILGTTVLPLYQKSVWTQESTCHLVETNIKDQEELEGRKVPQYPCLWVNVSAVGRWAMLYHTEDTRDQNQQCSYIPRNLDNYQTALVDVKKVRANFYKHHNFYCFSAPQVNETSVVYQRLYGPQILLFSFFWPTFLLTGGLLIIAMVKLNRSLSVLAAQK
BK β1 subunit, sequence (Q62976 whole entry partner): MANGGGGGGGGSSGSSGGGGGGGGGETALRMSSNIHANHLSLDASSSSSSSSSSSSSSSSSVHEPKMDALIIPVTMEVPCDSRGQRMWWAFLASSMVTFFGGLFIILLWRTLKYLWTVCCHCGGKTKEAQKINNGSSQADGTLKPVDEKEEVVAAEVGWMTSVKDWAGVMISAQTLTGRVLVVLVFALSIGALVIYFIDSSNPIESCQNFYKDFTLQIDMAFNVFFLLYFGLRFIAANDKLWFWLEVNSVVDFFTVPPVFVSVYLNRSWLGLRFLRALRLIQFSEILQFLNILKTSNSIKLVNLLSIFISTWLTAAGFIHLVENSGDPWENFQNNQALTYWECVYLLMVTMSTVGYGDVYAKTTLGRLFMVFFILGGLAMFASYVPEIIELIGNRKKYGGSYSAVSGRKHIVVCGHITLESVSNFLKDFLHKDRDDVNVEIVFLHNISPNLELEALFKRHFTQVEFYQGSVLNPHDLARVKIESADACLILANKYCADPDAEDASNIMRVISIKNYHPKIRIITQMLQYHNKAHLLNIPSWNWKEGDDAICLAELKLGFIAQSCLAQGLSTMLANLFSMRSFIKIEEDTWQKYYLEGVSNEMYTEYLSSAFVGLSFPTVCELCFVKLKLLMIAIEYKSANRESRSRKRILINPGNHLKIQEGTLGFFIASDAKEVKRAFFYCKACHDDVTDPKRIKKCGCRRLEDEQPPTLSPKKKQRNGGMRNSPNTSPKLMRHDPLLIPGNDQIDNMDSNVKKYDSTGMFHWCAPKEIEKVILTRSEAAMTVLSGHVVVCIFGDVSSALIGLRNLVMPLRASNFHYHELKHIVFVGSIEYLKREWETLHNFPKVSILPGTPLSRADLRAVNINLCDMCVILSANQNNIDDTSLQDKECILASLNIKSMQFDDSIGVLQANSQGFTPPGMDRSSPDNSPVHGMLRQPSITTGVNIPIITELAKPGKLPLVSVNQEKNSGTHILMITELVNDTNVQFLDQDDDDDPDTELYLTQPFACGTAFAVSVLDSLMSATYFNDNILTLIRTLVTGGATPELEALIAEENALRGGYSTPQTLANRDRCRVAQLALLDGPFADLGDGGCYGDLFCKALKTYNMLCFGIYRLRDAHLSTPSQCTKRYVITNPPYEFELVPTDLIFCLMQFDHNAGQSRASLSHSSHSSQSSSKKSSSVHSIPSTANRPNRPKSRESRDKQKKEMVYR

As for `C[C@H](CCC#N)[C@H]1CC[C@H]2[C@@H]3CC[C@@H]4C[C@H](O)CC[C@]4(C)[C@H]3CC[C@]12C` [compound 11, 3α-hydroxy-23-cyano analog, de-acetylated derivative (11)], a half-maximal effect (EC50) was put at 46.4 µM. As for `C[C@H](CCCC(=O)O)[C@H]1CC[C@H]2[C@@H]3CC[C@@H]4C[C@H](O)CC[C@]4(C)[C@H]3CC[C@]12C` [compound 15, higher homologe acid (15, carboxyl group at C25)], the EC50 (in general, the concentration needed to bring the measured effect to its halfway point) worked out at 42.8 µM. To `C[C@H](CCC(=O)O)[C@H]1CC[C@H]2[C@@H]3CC[C@@H]4C[C@H](O)CC[C@]4(C)[C@H]3CC[C@]12C` [LCA, 5β-cholanic acid-3α-ol] belongs 44 µM.
